Experimental data: PubChem BioAssay AID248 (DTP/NCI, 2004)
“And” between values parts separate entries of the source, which are not always exact repeats. Identical values can stand only once. Toxic doses and inconclusive results are not listed. Cut-off read from the data, not from the text of the source: active = T/C of 150% or more; inactive = T/C below 125%.

System: L1210 leukemia ip in BDF1 mice, survival T/C
Assay: NCI In Vivo Anticancer Drug Screen. Data for tumor model L1210 Leukemia (intraperitoneal) in B6D2F1 (BDF1) mice
Conditions: endpoint: mean survival time, higher = longer survival
Method in brief: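 In this screen, tumor-bearing mice given compound are compared to those given vehicle, and their survival values are reported as a treated-to-control quotient.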

[1] = dose: 12.5 mg/kg/injection, schedule: Q01DX009 (ip), vehicle: saline
[2] = dose: 25.0 mg/kg/injection, schedule: Q01DX009 (ip), vehicle: saline
[3] = dose: 50.0 mg/kg/injection, schedule: Q01DX009 (ip), vehicle: saline
[4] = dose: 5.0 mg/kg/injection, schedule: Q01DX001 (ip), vehicle: saline
[5] = dose: 10.0 mg/kg/injection, schedule: Q01DX001 (ip), vehicle: saline
[6] = dose: 20.0 mg/kg/injection, schedule: Q01DX001 (ip), vehicle: saline
[7] = dose: 25.0 mg/kg/injection, schedule: Q04DX003 (ip), vehicle: saline
[8] = dose: 40.0 mg/kg/injection, schedule: Q01DX001 (ip), vehicle: saline
[9] = dose: 50.0 mg/kg/injection, schedule: Q04DX003 (ip), vehicle: saline
[10] = dose: 100.0 mg/kg/injection, schedule: Q04DX003 (ip), vehicle: saline
[11] = dose: 200.0 mg/kg/injection, schedule: Q04DX003 (ip), vehicle: saline
[12] = dose: 100.0 mg/kg/injection, schedule: Q01DX009 (ip), vehicle: saline with Tween-80
[13] = dose: 200.0 mg/kg/injection, schedule: Q01DX009 (ip), vehicle: saline with Tween-80
[14] = dose: 25.0 mg/kg/injection, schedule: Q01DX009 (ip), vehicle: saline with Tween-80
[15] = dose: 50.0 mg/kg/injection, schedule: Q01DX009 (ip), vehicle: saline with Tween-80
[16] = dose: 50.0 mg/kg/injection, schedule: Q01DX001 (ip), vehicle: carboxymethylcellulose (CMC)
[17] = dose: 100.0 mg/kg/injection, schedule: Q01DX001 (ip), vehicle: carboxymethylcellulose (CMC)
[18] = dose: 200.0 mg/kg/injection, schedule: Q01DX001 (ip), vehicle: carboxymethylcellulose (CMC)
[19] = dose: 400.0 mg/kg/injection, schedule: Q01DX001 (ip), vehicle: carboxymethylcellulose (CMC)
[20] = dose: 100.0 mg/kg/injection, schedule: Q04DX002 (ip), vehicle: Klucel (hydroxypropylcellulose) (HPC)
[21] = dose: 200.0 mg/kg/injection, schedule: Q04DX002 (ip), vehicle: Klucel (hydroxypropylcellulose) (HPC)
[22] = dose: 100.0 mg/kg/injection, schedule: Q04DX003 (ip), vehicle: saline with Tween-80

Measured: T/C

C[N+]1(CCC(c2ccccc2)c2ccccc2)CCCCC1
inactive: [1] 97 % of control | [2] 96 % of control | [3] 96 % of control

c1ccc(N2CCNCC2)cc1
inactive: [4] 98 % of control [middle of 5 runs] | dose: 6.25 mg/kg/injection, schedule: Q01DX001 (ip), vehicle: saline 97 % of control | dose: 6.25 mg/kg/injection, schedule: Q04DX003 (ip), vehicle: saline 99 % of control | [5] 102 % of control [middle of 5 runs] | dose: 12.5 mg/kg/injection, schedule: Q01DX001 (ip), vehicle: saline 92 % of control | dose: 12.5 mg/kg/injection, schedule: Q04DX003 (ip), vehicle: saline 99 % of control | [6] 98 % of control [middle of 5 runs] | dose: 25.0 mg/kg/injection, schedule: Q01DX001 (ip), vehicle: saline 97 % of control | [7] 96 % of control | [8] 104 % of control [middle of 5 runs] | dose: 80.0 mg/kg/injection, schedule: Q01DX001 (ip), vehicle: saline 92 % of control and 98 % of control and 115 % of control | dose: 100.0 mg/kg/injection, schedule: Q01DX001 (ip), vehicle: saline 101 % of control

COc1ccc(/C=C/[N+](=O)[O-])cc1O
inactive: [2] 110 % of control | [7] 98 % of control | [3] 102 % of control | [9] 98 % of control | [10] 100 % of control | [11] 86 % of control

CCOC(=O)c1cc(C=O)nc2c(Cl)cc(Cl)cc12
inactive: [12] 89 % of control | [13] 92 % of control

O=C(COc1ccc(Cl)cc1Cl)Nc1ccc(F)cc1
inactive: [14] 93 % of control | [15] 91 % of control | [12] 104 % of control and 88 % of control

O=C(C(Cl)Cl)C(Cl)Cl
inactive: dose: 10.0 mg/kg/injection, schedule: Q01DX001 (ip), vehicle: carboxymethylcellulose (CMC) 106 % of control

O=C(NC(=S)NCc1ccccc1)c1ccccc1
inactive: dose: 75.0 mg/kg/injection, schedule: Q01DX001 (ip), vehicle: saline 98 % of control | dose: 150.0 mg/kg/injection, schedule: Q01DX001 (ip), vehicle: saline 93 % of control | dose: 300.0 mg/kg/injection, schedule: Q01DX001 (ip), vehicle: saline 98 % of control

Cc1ccc(S(=O)(=O)Oc2ccc([N+](=O)[O-])cc2[N+](=O)[O-])cc1
inactive: [16] 106 % of control | dose: 50.0 mg/kg/injection, schedule: Q01DX009 (ip), vehicle: other 100 % of control | [17] 114 % of control | dose: 100.0 mg/kg/injection, schedule: Q01DX009 (ip), vehicle: other 96 % of control | dose: 100.0 mg/kg/injection, schedule: Q04DX003 (ip), vehicle: Klucel (hydroxypropylcellulose) (HPC) 118 % of control | [18] 106 % of control | dose: 200.0 mg/kg/injection, schedule: Q04DX003 (ip), vehicle: Klucel (hydroxypropylcellulose) (HPC) 96 % of control | [19] 106 % of control

CC(=O)OCC1CC2C=CC1C2 (stereo unspecified)
inactive: dose: 222.0 mg/kg/injection, schedule: Q01DX Z (ip), vehicle: saline 98 % of control | dose: 333.0 mg/kg/injection, schedule: Q01DX Z (ip), vehicle: saline 102 % of control | dose: 500.0 mg/kg/injection, schedule: Q01DX Z (ip), vehicle: saline 104 % of control

CN(C)CCN1C(=O)c2ccc3c4c(ccc(c24)C1=O)C(=O)N(CCN(C)C)C3=O
inactive: dose: 50.0 mg/kg/injection, schedule: Q01DX001 (ip), vehicle: Klucel (hydroxypropylcellulose) (HPC) 96 % of control | dose: 100.0 mg/kg/injection, schedule: Q01DX001 (ip), vehicle: Klucel (hydroxypropylcellulose) (HPC) 94 % of control | dose: 200.0 mg/kg/injection, schedule: Q01DX001 (ip), vehicle: Klucel (hydroxypropylcellulose) (HPC) 89 % of control

CC(=O)Oc1ccc(N2CC=C(c3ccccc3)CC2)cc1
inactive: [20] 89 % of control | [21] 95 % of control

CCOC(=O)CC(=O)N/N=C(/C)C(=O)OCC
inactive: [12] 94 % of control | [22] 97 % of control | [13] 87 % of control | dose: 200.0 mg/kg/injection, schedule: Q04DX003 (ip), vehicle: saline with Tween-80 105 % of control | dose: 400.0 mg/kg/injection, schedule: Q01DX009 (ip), vehicle: saline with Tween-80 97 % of control | dose: 400.0 mg/kg/injection, schedule: Q04DX003 (ip), vehicle: saline with Tween-80 105 % of control

C[Se]c1nc2c(=O)[nH]c(N)nc2n1C1OC(CO)C(O)C1O (stereo unspecified)
inactive: dose: 100.0 mg/kg/injection, schedule: Q01DX005 (ip), vehicle: saline 107 % of control | dose: 200.0 mg/kg/injection, schedule: Q01DX005 (ip), vehicle: saline 102 % of control

COC1C(O)C(O)OC(CO)C1O (stereo unspecified)
inactive: [9] 112 % of control | [10] 96 % of control | [11] 104 % of control | dose: 400.0 mg/kg/injection, schedule: Q04DX003 (ip), vehicle: saline 96 % of control | dose: 500.0 mg/kg/injection, schedule: Q01DX009 (ip), vehicle: saline 94 % of control | dose: 1000.0 mg/kg/injection, schedule: Q01DX009 (ip), vehicle: saline 104 % of control

NC(=O)c1cccs1
inactive: [4] 98 % of control | [5] 98 % of control | [6] 98 % of control | [8] 102 % of control

O=C(O)CC(c1ccccc1)C(Nc1ccc2ccccc2c1)C(=O)O (stereo unspecified)
inactive: [20] 89 % of control | [21] 100 % of control | dose: 400.0 mg/kg/injection, schedule: Q04DX002 (ip), vehicle: Klucel (hydroxypropylcellulose) (HPC) 96 % of control

S=C(NCCNC(=S)[S][Sn]([c]1ccccc1)([c]1ccccc1)[c]1ccccc1)[S][Sn]([c]1ccccc1)([c]1ccccc1)[c]1ccccc1
inactive: dose: 4.0 mg/kg/injection, schedule: Q01DX015 (ip), vehicle: carboxymethylcellulose (CMC) 97 % of control | dose: 8.0 mg/kg/injection, schedule: Q01DX015 (ip), vehicle: carboxymethylcellulose (CMC) 97 % of control | dose: 16.0 mg/kg/injection, schedule: Q01DX015 (ip), vehicle: carboxymethylcellulose (CMC) 94 % of control | [14] 92 % of control | dose: 32.0 mg/kg/injection, schedule: Q01DX015 (ip), vehicle: carboxymethylcellulose (CMC) 94 % of control and 104 % of control | [15] 91 % of control | dose: 64.0 mg/kg/injection, schedule: Q01DX015 (ip), vehicle: carboxymethylcellulose (CMC) 112 % of control | [17] 100 % of control | [22] 96 % of control | [18] 100 % of control | [19] 102 % of control

O=C(Nc1ccc(Cl)c(Cl)c1)Nc1c(Oc2ccc(Cl)c(Cl)c2)ccc(Cl)c1S(=O)(=O)O
inactive: dose: 6.25 mg/kg/injection, schedule: Q01DX009 (ip), vehicle: saline 94 % of control | [1] 93 % of control | [2] 96 % of control

O=C(Nc1ccc(C(F)(F)F)cc1)Nc1cccc(Cl)c1
inactive: [16] 98 % of control | [17] 101 % of control | [18] 93 % of control | [19] 95 % of control

Cc1ccc2nc(-c3ccc(N)cc3)sc2c1S(=O)(=O)O
inactive: dose: 100.0 mg/kg/injection, schedule: Q01DX009 (ip), vehicle: saline 100 % of control | dose: 100.0 mg/kg/injection, schedule: Q04DX002 (ip), vehicle: saline 92 % of control | dose: 200.0 mg/kg/injection, schedule: Q01DX009 (ip), vehicle: saline 96 % of control | dose: 200.0 mg/kg/injection, schedule: Q04DX002 (ip), vehicle: saline 105 % of control | dose: 400.0 mg/kg/injection, schedule: Q01DX009 (ip), vehicle: saline 110 % of control | dose: 400.0 mg/kg/injection, schedule: Q04DX002 (ip), vehicle: saline 99 % of control
